Data on three compounds can be found in article PMC4774911, “Biochemical Screening of Five Protein Kinases from Plasmodium falciparum against 14,000 Cell-Active Compounds” (PLoS ONE, 2016).

Several values for one entry are separate records, joined by “and”; a condition that tells them apart may be missing. Equal entries are not always repeated. Where only a bound is given, the exact number is not on record here.

Holding throughout (experiment): biochemical
Assay [1] has as its target T1, TAOK2 (Homo sapiens, UniProt Q9UL54).
T1 sequence (Q9UL54 1-1235): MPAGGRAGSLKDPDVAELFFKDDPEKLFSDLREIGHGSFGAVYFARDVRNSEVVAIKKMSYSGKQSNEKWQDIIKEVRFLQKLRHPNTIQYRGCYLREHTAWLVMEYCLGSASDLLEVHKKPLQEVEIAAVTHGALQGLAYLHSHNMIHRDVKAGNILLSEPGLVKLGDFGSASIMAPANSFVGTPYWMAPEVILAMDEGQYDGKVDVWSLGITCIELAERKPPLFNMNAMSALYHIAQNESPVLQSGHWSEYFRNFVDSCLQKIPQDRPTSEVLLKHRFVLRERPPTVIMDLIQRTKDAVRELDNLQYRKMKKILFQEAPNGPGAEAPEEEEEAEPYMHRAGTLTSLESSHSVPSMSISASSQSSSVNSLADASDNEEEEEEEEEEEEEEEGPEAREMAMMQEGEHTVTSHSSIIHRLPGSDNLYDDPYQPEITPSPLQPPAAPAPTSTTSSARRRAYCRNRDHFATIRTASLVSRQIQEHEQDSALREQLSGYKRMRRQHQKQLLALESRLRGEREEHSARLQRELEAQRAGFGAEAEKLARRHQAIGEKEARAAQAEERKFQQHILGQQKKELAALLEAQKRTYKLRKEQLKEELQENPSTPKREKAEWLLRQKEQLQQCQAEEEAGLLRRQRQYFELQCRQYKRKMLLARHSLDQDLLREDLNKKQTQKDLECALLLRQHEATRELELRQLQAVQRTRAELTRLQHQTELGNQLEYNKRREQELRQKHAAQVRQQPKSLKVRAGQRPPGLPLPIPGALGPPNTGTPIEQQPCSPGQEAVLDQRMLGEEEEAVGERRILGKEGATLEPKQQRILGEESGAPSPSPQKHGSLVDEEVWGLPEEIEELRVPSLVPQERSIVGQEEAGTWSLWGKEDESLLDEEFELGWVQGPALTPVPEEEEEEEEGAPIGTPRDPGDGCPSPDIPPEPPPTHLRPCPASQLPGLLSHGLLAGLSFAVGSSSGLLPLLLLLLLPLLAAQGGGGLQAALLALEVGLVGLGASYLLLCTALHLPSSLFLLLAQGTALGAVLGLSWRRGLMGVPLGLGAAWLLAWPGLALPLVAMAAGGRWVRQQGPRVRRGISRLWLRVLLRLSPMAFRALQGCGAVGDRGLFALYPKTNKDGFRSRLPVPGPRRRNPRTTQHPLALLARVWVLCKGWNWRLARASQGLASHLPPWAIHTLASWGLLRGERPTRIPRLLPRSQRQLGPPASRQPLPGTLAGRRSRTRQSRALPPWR

For assay [2], the target named is T2, PIP4K2B (Homo sapiens, UniProt P78356).
T2 sequence (P78356 1-416): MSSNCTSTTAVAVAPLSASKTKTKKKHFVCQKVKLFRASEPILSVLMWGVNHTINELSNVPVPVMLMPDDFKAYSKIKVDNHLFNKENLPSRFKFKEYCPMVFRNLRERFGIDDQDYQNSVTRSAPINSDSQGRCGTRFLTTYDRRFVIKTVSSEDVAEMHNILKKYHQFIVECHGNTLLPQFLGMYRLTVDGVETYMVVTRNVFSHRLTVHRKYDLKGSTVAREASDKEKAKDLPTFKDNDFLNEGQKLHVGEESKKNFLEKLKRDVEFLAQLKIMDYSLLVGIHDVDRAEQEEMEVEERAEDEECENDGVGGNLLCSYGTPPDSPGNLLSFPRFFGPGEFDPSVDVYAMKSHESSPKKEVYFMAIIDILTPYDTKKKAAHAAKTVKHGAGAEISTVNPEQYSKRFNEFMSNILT

Assay [3] addresses T3, PIP4K2C (Homo sapiens, UniProt Q8TBX8).
T3 sequence (Q8TBX8 1-421): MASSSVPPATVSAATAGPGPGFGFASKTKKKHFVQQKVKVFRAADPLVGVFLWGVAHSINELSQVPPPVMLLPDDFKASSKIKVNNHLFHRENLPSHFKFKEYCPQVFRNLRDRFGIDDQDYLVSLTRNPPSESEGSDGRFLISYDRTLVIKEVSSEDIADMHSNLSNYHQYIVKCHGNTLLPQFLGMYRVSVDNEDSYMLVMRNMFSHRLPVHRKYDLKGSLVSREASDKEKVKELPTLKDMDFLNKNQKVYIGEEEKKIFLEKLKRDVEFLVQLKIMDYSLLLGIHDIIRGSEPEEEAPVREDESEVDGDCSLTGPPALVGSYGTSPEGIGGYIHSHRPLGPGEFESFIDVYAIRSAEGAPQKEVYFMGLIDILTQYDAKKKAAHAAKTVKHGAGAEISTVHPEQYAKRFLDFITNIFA

Assay [4] addresses RPS6KA3 (Homo sapiens, UniProt P51812).
In assay [5] the target is MAST3 (Homo sapiens, UniProt O60307).
Assay [6] deals with T4, MAPKAPK5 (Homo sapiens, UniProt Q8IW41).
T4 sequence (Q8IW41 1-473): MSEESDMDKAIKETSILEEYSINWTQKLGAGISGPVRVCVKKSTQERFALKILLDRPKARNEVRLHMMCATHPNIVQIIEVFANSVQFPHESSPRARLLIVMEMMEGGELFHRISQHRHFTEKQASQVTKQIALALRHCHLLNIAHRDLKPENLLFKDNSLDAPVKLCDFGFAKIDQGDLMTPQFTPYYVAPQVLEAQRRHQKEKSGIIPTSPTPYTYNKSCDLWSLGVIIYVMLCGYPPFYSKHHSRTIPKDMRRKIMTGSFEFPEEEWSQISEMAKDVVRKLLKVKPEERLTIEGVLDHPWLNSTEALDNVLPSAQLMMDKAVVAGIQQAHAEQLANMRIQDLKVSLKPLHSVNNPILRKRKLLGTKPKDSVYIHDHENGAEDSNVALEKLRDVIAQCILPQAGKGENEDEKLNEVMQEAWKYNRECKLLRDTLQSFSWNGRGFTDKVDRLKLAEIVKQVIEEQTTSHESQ

Chain of RPS6KA3 (P51812 whole entry): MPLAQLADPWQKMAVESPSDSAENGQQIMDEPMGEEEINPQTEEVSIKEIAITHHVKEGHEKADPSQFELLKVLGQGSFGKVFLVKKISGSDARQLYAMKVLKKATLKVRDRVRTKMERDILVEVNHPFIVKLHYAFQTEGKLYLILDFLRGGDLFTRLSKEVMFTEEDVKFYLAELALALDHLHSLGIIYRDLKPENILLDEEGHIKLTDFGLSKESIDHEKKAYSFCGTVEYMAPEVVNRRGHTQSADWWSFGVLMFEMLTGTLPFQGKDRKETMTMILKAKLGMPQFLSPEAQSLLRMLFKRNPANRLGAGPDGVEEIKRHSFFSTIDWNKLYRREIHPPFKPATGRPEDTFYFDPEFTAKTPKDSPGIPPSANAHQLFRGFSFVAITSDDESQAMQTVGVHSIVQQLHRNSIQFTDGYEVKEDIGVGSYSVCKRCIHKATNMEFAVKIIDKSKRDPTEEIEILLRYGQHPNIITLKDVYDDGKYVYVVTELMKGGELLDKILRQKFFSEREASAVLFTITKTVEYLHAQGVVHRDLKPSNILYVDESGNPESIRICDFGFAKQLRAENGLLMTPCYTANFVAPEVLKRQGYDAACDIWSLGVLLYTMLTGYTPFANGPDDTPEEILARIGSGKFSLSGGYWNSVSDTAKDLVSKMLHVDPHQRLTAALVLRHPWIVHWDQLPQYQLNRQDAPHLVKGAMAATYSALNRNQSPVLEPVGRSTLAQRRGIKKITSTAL
Chain of MAST3 (O60307 whole entry): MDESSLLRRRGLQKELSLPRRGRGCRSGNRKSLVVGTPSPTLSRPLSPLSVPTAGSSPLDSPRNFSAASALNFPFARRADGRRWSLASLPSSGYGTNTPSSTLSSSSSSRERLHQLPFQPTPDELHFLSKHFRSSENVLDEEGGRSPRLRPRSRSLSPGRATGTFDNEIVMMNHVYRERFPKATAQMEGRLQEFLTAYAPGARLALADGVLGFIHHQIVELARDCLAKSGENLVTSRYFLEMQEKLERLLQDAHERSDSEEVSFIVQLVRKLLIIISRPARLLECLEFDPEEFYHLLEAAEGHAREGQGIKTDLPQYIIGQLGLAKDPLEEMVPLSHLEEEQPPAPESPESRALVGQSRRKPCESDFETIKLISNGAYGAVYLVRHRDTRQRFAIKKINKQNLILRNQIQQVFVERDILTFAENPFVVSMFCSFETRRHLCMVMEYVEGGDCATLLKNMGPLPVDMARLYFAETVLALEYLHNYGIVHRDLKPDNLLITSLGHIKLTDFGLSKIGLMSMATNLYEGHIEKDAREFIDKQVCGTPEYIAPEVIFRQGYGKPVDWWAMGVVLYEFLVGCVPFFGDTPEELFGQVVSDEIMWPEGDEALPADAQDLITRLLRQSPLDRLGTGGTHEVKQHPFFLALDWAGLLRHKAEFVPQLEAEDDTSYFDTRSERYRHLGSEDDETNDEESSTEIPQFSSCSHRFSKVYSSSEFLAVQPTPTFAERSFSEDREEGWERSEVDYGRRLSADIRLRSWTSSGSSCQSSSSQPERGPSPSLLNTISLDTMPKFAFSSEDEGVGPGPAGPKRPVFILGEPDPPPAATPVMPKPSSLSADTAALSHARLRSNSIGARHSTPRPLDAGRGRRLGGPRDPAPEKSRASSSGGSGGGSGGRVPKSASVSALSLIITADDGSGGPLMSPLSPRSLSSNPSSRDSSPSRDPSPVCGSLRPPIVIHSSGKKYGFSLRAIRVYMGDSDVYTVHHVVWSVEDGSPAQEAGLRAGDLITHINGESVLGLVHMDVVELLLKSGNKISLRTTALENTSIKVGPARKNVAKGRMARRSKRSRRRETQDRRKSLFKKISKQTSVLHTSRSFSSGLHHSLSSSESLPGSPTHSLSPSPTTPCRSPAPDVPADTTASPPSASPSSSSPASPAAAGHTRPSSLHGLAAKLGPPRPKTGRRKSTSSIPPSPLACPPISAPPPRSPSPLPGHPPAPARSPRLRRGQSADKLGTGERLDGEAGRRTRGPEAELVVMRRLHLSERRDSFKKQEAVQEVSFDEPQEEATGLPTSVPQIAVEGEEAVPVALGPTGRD

One may read the IC50 as the concentration that gives 50% inhibition. A low value points to higher potency. With `CN1CCN(c2ccc(Nc3ncc(C#N)c(Nc4ccccc4C(N)=O)n3)cc2)CC1.Cl` [TCMDC-134116], the half-inhibitory concentration (IC50) in assay [1] is 0.4 µM; in assay [2], 1.6 µM and 1 µM; in assay [3] it was 0.97 µM and 1 µM; in assay [4], 0.089 µM and 0.12 µM; in assay [5], 0.16 µM.
In the case of `Cl.NCC1(c2nc(-c3ccc(Cl)c(O)c3)c(-c3ccncc3)[nH]2)CCCCC1` [TCMDC-141154], the IC50 in assay [3], in assay [4], in assay [6] and in assay [5] was above 20 µM each time.
In the case of `CN(C)CC(O)COc1ccc(Nc2ncc([N+](=O)[O-])c(Nc3ccccc3O)n2)cc1.O=C(O)C(F)(F)F` (stereo not drawn) [TCMDC-141399], the half-inhibitory concentration (IC50) in assay [1] was above 20 µM; in assay [2], 0.97 µM; in assay [6] it was 0.32 µM.
